Two compounds from publication PMC5642495, “Characterization of a novel androgen receptor (AR) coregulator RIPK1 and related chemicals that suppress AR-mediated prostate cancer growth via peptide and chemical screening” (Oncotarget, 2017) can be followed below.

For one series, the system named is LNCaP. As to the kind of experiment: cell growth assay (MTT), LNCaP. The format is cell-based. Particulars: Homo sapiens, 48 h, Figure 4B, read-out: IC50, prostate cancer cell line growth. As to the method:
LNCaP, CWR22R, and PC-3 cells were grown in RPMI containing 10% FBS. Cells were plated at a density of 5 × 10^4 cells/well in 24-well plates overnight and incubated with difference concentrations of chemicals for 48 h. Cell growth was assessed using the 3-{4,5-dimethylthiazol-2-yl}-2,5-diphenyltetrazolium bromide (MTT) assay. At each time-point, 50 μl of 5 mg/ml MTT was added to each well containing 500 μl medium and incubated for 3 h, followed by the addition of 500 μl isopropyl alcohol to dissolve the reduced formazan product. Absorbance of each well was measured at a wavelength of 590 nm in a DU 640B spectrophotometer (Beckman, Fullerton, CA), according to the manufacturer’s protocol. Values represent mean OD590 ± SD from at least three independent reaction wells.

Another series has as its target T1, AR-peptide interaction (Homo sapiens, UniProt P10275).
T1 construct: expressed in transfected cells; host or cells: PC-3
T1 sequence (P10275 1-920): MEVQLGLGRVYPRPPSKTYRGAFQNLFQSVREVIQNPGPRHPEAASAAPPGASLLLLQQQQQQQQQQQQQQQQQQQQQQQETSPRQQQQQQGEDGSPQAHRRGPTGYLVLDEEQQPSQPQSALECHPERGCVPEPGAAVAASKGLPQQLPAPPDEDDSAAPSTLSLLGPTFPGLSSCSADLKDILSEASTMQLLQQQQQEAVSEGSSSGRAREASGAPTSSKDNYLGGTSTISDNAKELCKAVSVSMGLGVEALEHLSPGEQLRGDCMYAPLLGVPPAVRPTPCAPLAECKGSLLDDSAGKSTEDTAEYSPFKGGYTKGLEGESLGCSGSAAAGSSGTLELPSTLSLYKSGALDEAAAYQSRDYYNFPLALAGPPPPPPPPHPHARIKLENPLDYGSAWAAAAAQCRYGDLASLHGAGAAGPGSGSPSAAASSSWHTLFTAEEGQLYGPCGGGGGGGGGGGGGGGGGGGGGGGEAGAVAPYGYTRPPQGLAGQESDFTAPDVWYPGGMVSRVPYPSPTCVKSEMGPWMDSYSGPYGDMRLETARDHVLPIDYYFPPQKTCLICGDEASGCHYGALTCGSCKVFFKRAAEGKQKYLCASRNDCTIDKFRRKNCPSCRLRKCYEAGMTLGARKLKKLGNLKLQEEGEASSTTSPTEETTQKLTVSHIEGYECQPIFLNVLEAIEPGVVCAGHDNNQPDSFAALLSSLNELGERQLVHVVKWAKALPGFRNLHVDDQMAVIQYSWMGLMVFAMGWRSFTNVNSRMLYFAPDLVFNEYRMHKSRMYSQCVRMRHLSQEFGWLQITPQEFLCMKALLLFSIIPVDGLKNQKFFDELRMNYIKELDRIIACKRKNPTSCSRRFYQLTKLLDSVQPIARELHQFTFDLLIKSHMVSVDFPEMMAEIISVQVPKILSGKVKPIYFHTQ
As to the kind of experiment: AR-peptide interaction reporter assay (GAL4-DBD-3-18 / VP16-AR) in PC-3 cells. In kind it is cell-based. Particulars: 10 nM DHT, Figure 6B. As to the method:
(§1) Figure 6 Mechanism underlying suppression of AR-related functions by oxadiazole derivatives (A–C) Transcriptional activity in reporter assays. PC-3 cells in 24-well plates were transfected as indicated below. After incubation for 16 h, cells were treated with ethanol, 10 nM DHT, or 0.01–10 μM HWC-489 or LHJ-647 for an additional 16 h. Luciferase activity in cell lysates was determined and normalized to protein concentrations. Relative luciferase activity was calculated using the luciferase reporter assay system. (A) PC-3 cells were co-transfected with 350 ng pCDNA3-flag-hAR-N (residues 1–506), 350 ng pCDNA3-hAR-C (residues 556–919), and 300 ng MMTV-Luc plasmids. (B) PC-3 cells were co-transfected with 350 ng GAL4-DBD-3-18, 350 ng pCMX-VP16-AR, and 300 ng pG5-Luc plasmids. (C) PC-3 cells were transfected with 350 ng GAL4-DBD-ARA54C, 350 ng VP16-AR, and 300 ng pG5-Luc plasmids. (D) LHJ-647 promotes AR protein degradation.

A further series deals with T2, AR-cofactor interaction (Homo sapiens, UniProt P10275).
T2 construct: expressed in transfected cells; host or cells: PC-3
T2 sequence (P10275 1-920): T1 sequence (P10275 1-920)
The series is described as follows: AR-cofactor interaction reporter assay (GAL4-DBD-ARA54C / VP16-AR) in PC-3 cells. The note with it: 10 nM DHT, Figure 6C. In kind it is cell-based. As to the method:
as §1

The subject of another series is NOD/SCID mice. As to the kind of experiment: treatment toxicity monitoring in xenograft mice. In kind it is in vivo. Particulars: for changes in body weight, clinical signs and gross morphology: during the study period; for mouse mortality: in vivo. Here is the method: All experiments involving laboratory animals were conducted in accordance with the Guidelines for Animal Experiments of Chang Gung Memorial Hospital and approved by the Animal Research Committee at the hospital. LNCaP cells were harvested, washed twice with phosphate-buffed saline, and resuspended at a final concentration of 5 × 10^6 cells/mL in Matrigel (BD Biosciences, San Jose, CA) containing basement membrane components. Next, 5 × 10^5 cells (100 μL per site) were subcutaneously injected into the flanks of 4–6 week-old male NOD/SCID mice (BioLASCO, Taiwan). Tumor development was confirmed within 2–3 weeks after injection of the same number of cell subclones. Treatment with different chemicals was initiated at the same time. Tumor dimensions were measured twice a week with calipers, and tumor volumes calculated using the formula: tumor volume (mm^3) = tumor length (mm) × [tumor width (mm)]^2 × 0.5. Three to five mice were used per group (with or without chemical treatment). Mice were sacrificed 4 weeks after chemical injection and tumors harvested for further analyses. For evaluation of treatment toxicity, animal mortality, changes in body weight, clinical signs and gross morphology were monitored during the experiment.

Another series concerns the target T3, AR protein (Homo sapiens, UniProt P10275).
T3 sequence (P10275 1-920): T1 sequence (P10275 1-920)
As to the kind of experiment: AR protein degradation. In kind it is cell-based. Particulars: Figure 6D. Here is the method:
as §1

The term IC50 denotes the concentration at which inhibition is half-maximal. As for `Cc1ccc(-c2nnc(Nc3ccccc3)o2)cc1` [HWC-489], in the series with LNCaP, the IC50 is 1 to 10 µM. In addition, the “concentration range of significant suppression of AR-peptide interaction” value on AR-peptide interaction lay within 0.1 to 1 µM. For the same compound, the “concentration range of significant suppression of AR-cofactor interaction” value on AR-cofactor interaction was 0.1 to 1 µM. In the series with NOD/SCID mice, the “changes in body weight, clinical signs and gross morphology” value was “no significant alterations”; the mouse mortality result is “No mouse mortality was observed”.

In the case of `COc1cccc(Nc2nnc(-c3ccc(N(C)C)cc3)o2)c1` [LHJ-647], the IC50 with LNCaP fell in the range of 1 to 10 µM. Also, the “concentration range of significant suppression of AR-peptide interaction” value at AR-peptide interaction fell in the range of 0.1 to 1 µM. In addition, the “concentration range of significant suppression of AR-cofactor interaction” value on AR-cofactor interaction was 0.1 to 1 µM. In addition, at AR protein, the AR protein degradation entry is listed as “promoted AR protein degradation”. Further, in the series with NOD/SCID mice, the “changes in body weight, clinical signs and gross morphology” value was “no significant alterations”; the mouse mortality entry is “No mouse mortality was observed”.
